Source: ChEMBL document CHEMBL1833947, “Synthesis and biological investigation of potential atypical antipsychotics with a tropane core. Part 1” (Eur J Med Chem, 2011)
Activity calls are given as the source filed them. No cut-off for these calls is given here.

What was measured:
D(2) dopamine receptor = D(2) dopamine receptor (Rattus norvegicus, UniProt P61169); experiment: Displacement of [3H]spiperone from dopamine D2 receptor in rat striatum tissue after 20 mins by scintillation counting; assay type: tissue-based
[1] = target: T1, 5-hydroxytryptamine receptor 1A (Rattus norvegicus, UniProt P19327); experiment: Displacement of [3H]8OH-DPAT from 5HT1A in rat brain cerebral cortex after 15 mins by scintillation counting; assay type: tissue-based
T1 sequence (P19327 whole entry): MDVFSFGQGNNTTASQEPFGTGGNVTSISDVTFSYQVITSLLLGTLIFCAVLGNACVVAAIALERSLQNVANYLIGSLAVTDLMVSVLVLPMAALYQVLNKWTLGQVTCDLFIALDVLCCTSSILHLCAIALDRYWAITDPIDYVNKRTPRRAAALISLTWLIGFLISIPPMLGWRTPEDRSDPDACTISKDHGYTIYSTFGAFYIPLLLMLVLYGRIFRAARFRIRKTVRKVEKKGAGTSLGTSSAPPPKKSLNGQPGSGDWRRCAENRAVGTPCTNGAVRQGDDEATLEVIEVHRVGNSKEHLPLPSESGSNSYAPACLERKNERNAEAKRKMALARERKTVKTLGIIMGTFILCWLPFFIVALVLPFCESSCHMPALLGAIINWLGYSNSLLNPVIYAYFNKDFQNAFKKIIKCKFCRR

[2] = target: 5-hydroxytryptamine receptor 2A (Rattus norvegicus, UniProt P14842); experiment: Displacement of [3H]ketanserin from 5HT2A in rat brain cerebral cortex after 20 mins by scintillation counting; assay type: tissue-based
Mus musculus [3] = experiment: Antipsychotic activity in mouse assessed as reversal of apomorphine-induced mesh climbing response at 2.5 mg/kg, ip administered 10 mins prior to apomorphine challenge measured after 50 mins; assay type: functional, organism-based; set-up: dose 2.5 mg/kg
Mus musculus [4] = experiment: Antipsychotic activity in mouse assessed as reversal of apomorphine-induced mesh climbing response at 2.5 mg/kg, ip administered 10 mins prior to apomorphine challenge measured after 30 mins; assay type: functional, organism-based; set-up: dose 2.5 mg/kg
Mus musculus [5] = experiment: Antipsychotic activity in mouse assessed as reversal of apomorphine-induced mesh climbing response at 2.5 mg/kg, ip administered 10 mins prior to apomorphine challenge measured after 10 mins; assay type: functional, organism-based; set-up: dose 2.5 mg/kg
Mus musculus [6] = experiment: Antipsychotic activity in mouse assessed as reversal of apomorphine-induced mesh climbing response at 2.5 mg/kg, ip administered 10 mins prior to apomorphine challenge measured after 60 mins; assay type: functional, organism-based; set-up: dose 2.5 mg/kg
Mus musculus [7] = experiment: Antipsychotic activity in mouse assessed as reversal of apomorphine-induced mesh climbing response at 2.5 mg/kg, ip administered 10 mins prior to apomorphine challenge measured after 20 mins; assay type: functional, organism-based; set-up: dose 2.5 mg/kg
Mus musculus [8] = experiment: Antipsychotic activity in mouse assessed as reversal of DOI-induced head twitches at 10 mg/kg, ip administered 30 mins before DOI challenge; assay type: functional; details: route intraperitoneal
Mus musculus [9] = experiment: Antipsychotic activity in mouse assessed as reversal of DOI-induced head twitches at 5 mg/kg, ip administered 30 mins before DOI challenge; assay type: functional; details: route intraperitoneal
Mus musculus [10] = experiment: Antipsychotic activity in mouse assessed as reversal of DOI-induced head twitches at 20 mg/kg, ip administered 30 mins before DOI challenge; assay type: functional; details: route intraperitoneal
Mus musculus [11] = experiment: Antipsychotic activity in mouse assessed as reversal of apomorphine-induced mesh climbing response at 50 mg/kg, ip administered 20 mins prior to apomorphine challenge measured after 120 mins
Mus musculus [12] = experiment: Antipsychotic activity in mouse assessed as reversal of apomorphine-induced mesh climbing response at 10 mg/kg, ip administered 10 mins prior to apomorphine challenge measured after 20 mins; assay type: functional, organism-based; set-up: dose 10 mg/kg
Mus musculus [13] = experiment: Antipsychotic activity in mouse assessed as reversal of apomorphine-induced mesh climbing response at 50 mg/kg, ip administered 10 mins prior to apomorphine challenge measured after 30 mins; assay type: functional, organism-based; set-up: dose 50 mg/kg
Mus musculus [14] = experiment: Antipsychotic activity in mouse assessed as reversal of apomorphine-induced mesh climbing response at 10 mg/kg, ip administered 10 mins prior to apomorphine challenge measured after 40 mins; assay type: functional, organism-based; set-up: dose 10 mg/kg

Chain of 5-hydroxytryptamine receptor 2A (P14842 whole entry): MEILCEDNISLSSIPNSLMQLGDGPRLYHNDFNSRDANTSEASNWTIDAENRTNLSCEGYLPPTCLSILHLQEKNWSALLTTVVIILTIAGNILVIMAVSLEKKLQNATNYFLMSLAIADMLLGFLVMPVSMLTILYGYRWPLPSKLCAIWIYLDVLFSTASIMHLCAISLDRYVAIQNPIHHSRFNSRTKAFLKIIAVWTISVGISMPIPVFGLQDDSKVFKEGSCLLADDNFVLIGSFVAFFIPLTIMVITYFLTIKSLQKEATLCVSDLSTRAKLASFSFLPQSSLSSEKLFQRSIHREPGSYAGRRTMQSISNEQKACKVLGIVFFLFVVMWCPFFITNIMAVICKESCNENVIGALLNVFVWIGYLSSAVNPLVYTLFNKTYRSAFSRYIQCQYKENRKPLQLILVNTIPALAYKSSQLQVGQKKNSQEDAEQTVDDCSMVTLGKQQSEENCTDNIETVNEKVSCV
Chain of D(2) dopamine receptor (P61169 whole entry): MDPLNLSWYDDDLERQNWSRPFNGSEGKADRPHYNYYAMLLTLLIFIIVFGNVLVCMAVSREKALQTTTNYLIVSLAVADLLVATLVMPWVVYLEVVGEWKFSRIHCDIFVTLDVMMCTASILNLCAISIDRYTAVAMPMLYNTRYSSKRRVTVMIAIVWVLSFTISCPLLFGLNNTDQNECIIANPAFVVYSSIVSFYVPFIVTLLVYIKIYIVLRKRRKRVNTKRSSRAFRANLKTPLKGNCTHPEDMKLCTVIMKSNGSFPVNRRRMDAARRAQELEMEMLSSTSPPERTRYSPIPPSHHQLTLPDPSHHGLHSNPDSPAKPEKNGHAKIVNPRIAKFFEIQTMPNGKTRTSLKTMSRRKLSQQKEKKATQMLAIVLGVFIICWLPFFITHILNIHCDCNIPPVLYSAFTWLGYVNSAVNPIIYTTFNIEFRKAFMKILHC

Question: What does the source list for COc1cccc(C(=O)N[C@@H]2CC3CC[C@H](C2)N3Cc2ccco2)c1OC (single isomer, unassigned; 14a)?
Answer: Ki (D(2) dopamine receptor): > 100 µM; Ki [1]: > 100 µM; Ki [2]: 2.5 µM

Question: How did the Ki (D(2) dopamine receptor) turn out when O=C(N[C@H]1CC2CC[C@H](C1)N2Cc1ccco1)c1ccc(Cl)cc1[N+](=O)[O-] (single isomer, unassigned) was run?
Answer: 19 µM

Question: And the Ki [1]?
Answer: 16 µM

Question: And the Ki [2]?
Answer: 32 µM

Question: What does the source list for O=C(N[C@H]1CC2CC[C@H](C1)N2CC1CCCO1)c1ccccc1 (single isomer, unassigned)?
Answer: Ki (D(2) dopamine receptor): > 100 µM; Ki [1]: 10.2 µM; Ki [2]: 3.1 µM

Question: Which results are given for CN1CCc2cccc3c2[C@H]1Cc1ccc(O)c(O)c1-3?
Answer: Activity (Mus musculus [3]): inactive; Activity (Mus musculus [4]): inactive; Activity (Mus musculus [5]): inactive; Activity (Mus musculus [6]): inactive; Activity (Mus musculus [7]): inactive

Question: COc1ccc(F)cc1C(=O)N[C@H]1C[C@H]2CC[C@@H](C1)N2Cc1ccco1 (stereo in doubt; 14b) was tested. Which Ki (D(2) dopamine receptor) did it give?
Answer: 44 µM

Question: And the Ki [1]?
Answer: > 100 µM

Question: What about the Ki [2] of the same molecule?
Answer: 7 µM

Question: How did the Ki (D(2) dopamine receptor) turn out when COc1cccc(C(=O)N[C@@H]2CC3CC[C@H](C2)N3Cc2cccnc2)c1OC (single isomer, unassigned) was run?
Answer: 0.0115 µM

Question: And the Ki [1]?
Answer: 3.3 µM

Question: And the Ki [2]?
Answer: 0.956 µM

Question: O=C(N[C@@H]1CC2CC[C@H](C1)N2CC1CCCO1)c1ccc2ccccc2c1 (single isomer, unassigned) was tested. Which Ki (D(2) dopamine receptor) did it give?
Answer: 1.2 µM

Question: And the Activity (Mus musculus [8])?
Answer: 63%

Question: And the Activity (Mus musculus [9])?
Answer: 26%

Question: And the Activity (Mus musculus [10])?
Answer: 73%

Question: And the Activity (Mus musculus [11])?
Answer: Active

Question: What about the Ki [1] of the same molecule?
Answer: 3.3 µM

Question: What about the Ki [2] of the same molecule?
Answer: 0.0123 µM

Question: With COc1ccc(C(=O)N[C@H]2CC3CC[C@H](C2)N3Cc2ccco2)c(OC)c1 (single isomer, unassigned) as the molecule, how does the Ki (D(2) dopamine receptor) read?
Answer: 0.652 µM

Question: And the Ki [1]?
Answer: 19 µM

Question: And the Ki [2]?
Answer: 1.3 µM

Question: With COc1cccc(C(=O)N[C@@H]2CC3CC[C@H](C2)N3Cc2ccccn2)c1OC (single isomer, unassigned) as the molecule, how does the Ki (D(2) dopamine receptor) read?
Answer: 0.0093 µM

Question: And the Ki [1]?
Answer: 1.4 µM

Question: And the Ki [2]?
Answer: 1 µM

Question: Which Ki (D(2) dopamine receptor) does the source give for COc1cccc(C(=O)N[C@H]2CC3CC[C@H](C2)N3CC2CCCO2)c1 (single isomer, unassigned) here?
Answer: > 100 µM

Question: What about the Ki [1] of the same molecule?
Answer: 10.3 µM

Question: What about the Ki [2] of the same molecule?
Answer: 1.1 µM

Question: For COc1ccccc1C(=O)N[C@H]1CC2CC[C@H](C1)N2Cc1ccco1 (single isomer, unassigned), which Ki (D(2) dopamine receptor) is on record?
Answer: 1 µM

Question: What about the Ki [1] of the same molecule?
Answer: 6.1 µM

Question: What about the Ki [2] of the same molecule?
Answer: 6 µM

Question: COc1ccc(C(=O)N[C@H]2CC3CC[C@H](C2)N3Cc2ccco2)cc1OC (single isomer, unassigned) was tested. Which Ki (D(2) dopamine receptor) did it give?
Answer: 68.8 µM

Question: And the Ki [1]?
Answer: 57.3 µM

Question: And the Ki [2]?
Answer: 7.9 µM

Question: COc1cccc(C(=O)N[C@@H]2CC3CC[C@H](C2)N3Cc2ccco2)c1OC (single isomer, unassigned; 4b) [listing 1 of 2 here] was tested. Which Activity (Mus musculus [12]) did it give?
Answer: inactive

Question: What about the Activity (Mus musculus [11]) of the same molecule?
Answer: Active

Question: What about the Activity (Mus musculus [13]) of the same molecule?
Answer: Active

Question: Which Ki (D(2) dopamine receptor) does the source give for COc1cc(Cl)ccc1C(=O)N[C@H]1CC2CC[C@H](C1)N2Cc1ccco1 (single isomer, unassigned) here?
Answer: 0.174 µM

Question: And the Activity (Mus musculus [8])?
Answer: 40%

Question: And the Activity (Mus musculus [9])?
Answer: 40%

Question: What about the Activity (Mus musculus [10]) of the same molecule?
Answer: 45%

Question: What about the Activity (Mus musculus [11]) of the same molecule?
Answer: Active

Question: And the Ki [1]?
Answer: 2.1 µM

Question: What about the Activity (Mus musculus [14]) of the same molecule?
Answer: inactive

Question: What about the Ki [2] of the same molecule?
Answer: 0.682 µM

Question: With COc1ccc(Cl)cc1C(=O)N[C@@H]1CC2CC[C@H](C1)N2CC1CCCO1 (single isomer, unassigned) as the molecule, how does the Ki (D(2) dopamine receptor) read?
Answer: 2.4 µM

Question: What about the Ki [1] of the same molecule?
Answer: 4.6 µM

Question: What about the Ki [2] of the same molecule?
Answer: 0.12 µM

Question: With COc1cccc(C(=O)N[C@@H]2CC3CC[C@H](C2)N3Cc2ccncc2)c1OC (single isomer, unassigned) as the molecule, how does the Ki (D(2) dopamine receptor) read?
Answer: 0.0283 µM

Question: What about the Ki [1] of the same molecule?
Answer: 2.5 µM

Question: What about the Ki [2] of the same molecule?
Answer: 0.7 µM

Question: For COc1cc(C(=O)N[C@H]2CC3CC[C@H](C2)N3Cc2ccco2)cc(OC)c1OC (single isomer, unassigned), which Ki (D(2) dopamine receptor) is on record?
Answer: 52.2 µM

Question: What about the Ki [1] of the same molecule?
Answer: 2.9 µM

Question: And the Ki [2]?
Answer: 1.1 µM

Question: What does the source list for COc1ccc(F)cc1C(=O)N[C@@H]1CC2CC[C@H](C1)N2CC1CCCO1 (single isomer, unassigned)?
Answer: Ki (D(2) dopamine receptor): 12.4 µM; Ki [1]: 10.1 µM; Ki [2]: 1.1 µM

Question: What does the source list for O=C(N[C@@H]1CC2CC[C@H](C1)N2Cc1ccccc1)c1cccc2ccccc12 (single isomer, unassigned)?
Answer: Ki (D(2) dopamine receptor): 2.9 µM; Ki [1]: 0.532 µM; Ki [2]: 0.394 µM

Question: Which results are given for O=C(N[C@@H]1CC2CC[C@H](C1)N2CC1CCCO1)c1cccc2ccccc12 (single isomer, unassigned)?
Answer: Ki (D(2) dopamine receptor): 4 µM; Ki [1]: 3.1 µM; Ki [2]: 0.394 µM

Question: Which results are given for COc1ccc(F)cc1C(=O)N[C@H]1CC2CC[C@H](C1)N2Cc1ccco1 (single isomer, unassigned)?
Answer: Ki (D(2) dopamine receptor): 0.507 µM; Ki [1]: 17.2 µM; Ki [2]: 1.4 µM

Question: With O=C(N[C@H]1CC2CC[C@H](C1)N2Cc1ccco1)c1cccc2ccccc12 (single isomer, unassigned) as the molecule, how does the Ki (D(2) dopamine receptor) read?
Answer: 66.7 µM

Question: And the Ki [1]?
Answer: 7.1 µM

Question: And the Ki [2]?
Answer: 2.3 µM

Question: What does the source list for COc1ccc(OC)c(C(=O)N[C@H]2CC3CC[C@H](C2)N3Cc2ccco2)c1 (single isomer, unassigned)?
Answer: Ki (D(2) dopamine receptor): 1.1 µM; Ki [1]: 9.6 µM; Ki [2]: 1.1 µM

Question: What does the source list for COc1cccc(C(=O)N[C@@H]2CC3CC[C@H](C2)N3Cc2ccco2)c1OC (single isomer, unassigned; 4b) [listing 2 of 2 here]?
Answer: Ki (D(2) dopamine receptor): 0.0263 µM; Activity (Mus musculus [8]): 28%; Activity (Mus musculus [9]): 33%; Activity (Mus musculus [10]): 47%; Ki [1]: 3 µM; Ki [2]: 0.745 µM

Question: Which Ki (D(2) dopamine receptor) does the source give for COc1cc(OC)cc(C(=O)N[C@H]2CC3CC[C@H](C2)N3Cc2ccco2)c1 (single isomer, unassigned) here?
Answer: 13.2 µM

Question: What about the Ki [1] of the same molecule?
Answer: 4.4 µM

Question: And the Ki [2]?
Answer: 0.929 µM
